Measured values from patent publication US8846898B2, “Phosphinoamidite carboxylates and analogs thereof in the synthesis of oligonucleotide having reduced internucleotide charge” (Lieure Cornu LLC, priority 2000, dated 2014).
[pace] = phosphonoacetate internucleotide linkage

Legend:
DNase I = DNase I (Bos taurus, UniProt P00639)
Experimental: Radiolabeling of Oligodeoxynucleotides: ODNs were 5′ end-labeled using γ-^32P ATP and T4 polynucleotide kinase (Wu et al., “Purification and Sequence Analysis of Synthetic Oligodeoxyribonucleotides,” in Oligonucleotide Synthesis: A Practical Approach, Gait, Ed. (Oxford University Press, 1990)). […] The radiolabeled ODNs were purified by gel electrophoresis and ethanol precipitation.
Endonuclease Stability: Endonuclease digestion experiments were carried out using DNase I (Boehringer-Mannheim). The assays were performed using a mixture of oligodeoxynucleotide labeled with ^32P at the 5′-end (100,000 cpm) and unlabeled oligodeoxynucleotide (40 pmol) in a buffer containing 40 mM Tris-HCl, pH 7.5, 6 mM MgCl2. Slight excess of the complementary DNA strand (1.2 eq.) was added and the mixture was heated to 95° C. for 5 minutes then chilled on ice for 30 minutes. Enzyme was added to a final concentration of 1 unit/μl (40 μl total reaction volume). The reaction mixture was overlayed with 25 μl of mineral oil and incubated at 37° C. Aliquots (3.5 μl) were removed and quenched by adding 7M urea in TBE buffer (12 μl) and heating to 95° C. for 5 minutes. […]
The mixtures were heated to 95° C. for 5 minutes followed by slow cooling and incubation on ice for 30 minutes. The mixture was equilibrated to room temperature, DNase I added, and the reaction monitored as a function of time. […]

E. coli RNaseH1 = E. coli RNaseH1 (Escherichia coli, UniProt P0A7Y4); test: Hydrolysis of RNA heteroduplexes with E. coli RNaseH1; format: biochemical; conditions: 5′-32P RNA, two units RNaseH1, four hours at 37° C.
[1] = tested on: Phosphodiesterase I from Crotalus adamanteu (snake venom phosphodiesterase)

Chain of DNase I (P00639 23-282): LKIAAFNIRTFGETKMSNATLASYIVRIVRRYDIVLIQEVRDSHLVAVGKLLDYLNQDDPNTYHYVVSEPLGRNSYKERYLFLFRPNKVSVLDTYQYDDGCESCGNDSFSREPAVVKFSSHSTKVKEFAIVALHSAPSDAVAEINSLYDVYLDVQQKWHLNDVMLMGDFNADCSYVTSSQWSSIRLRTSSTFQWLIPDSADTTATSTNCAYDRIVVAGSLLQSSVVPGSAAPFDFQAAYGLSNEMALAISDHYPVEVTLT
Chain of E. coli RNaseH1 (P0A7Y4 whole entry): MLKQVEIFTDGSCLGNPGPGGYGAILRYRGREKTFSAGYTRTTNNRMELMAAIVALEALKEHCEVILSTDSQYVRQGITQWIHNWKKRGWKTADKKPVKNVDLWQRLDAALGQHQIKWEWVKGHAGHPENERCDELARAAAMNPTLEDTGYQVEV

Substance | degradation / hydrolysis products observed on incubation with DNase I (DNase I) | RNA degraded (converted to hydrolysis products) in the presence of the oligonucleotide and RNaseH1 (E. coli RNaseH1) | degradation / hydrolysis products observed on exposure to SVP [1] | time to complete degradation by DNase I (DNase I) [h]
phosphonoacetate ODN: 18-mer mixed sequence ODN 5′-CTCAAGTGGGCTGGTGAC-3′ containing internucleotide phosphonoacetate linkages (DNA, all [pace], methylation of C not given here) | no degradation products | approximately 66% | No detectable degradation products | –
phosphodiester ODN: 18-mer mixed sequence ODN 5′-CTCAAGTGGGCTGGTGAC-3′ containing internucleotide phosphodiester linkages (unmodified DNA) (unmodified DNA) [reference compound] | – | – | – | ≤ 1
